Assay results from US20240116945A1, “EXATECAN-DERIVED TOPOISOMERASE-1 INHIBITORS PHARMACEUTICAL COMPOSITIONS, AND USES THEREOF” (Merck Sharp & Dohme LLC, priority 2022, published 2024).
Counter-ions that a name gives are not always drawn.

Each compound was assayed on Jeko-1 cells (assay: CellTiter-Glo 2.0 Cytotoxicity Assay). Conditions: Homo sapiens, JeKo-1, read-out: Jeko-1 EC50 (nM), Jeko-1 cells, 3000 cells/well; compounds added Day 1; CellTiter-Glo 2.0 luminescence read on Day 4 or 5.
Assay type: cell-based
Experimental: Reaction progress and synthetic intermediate analysis were assessed by LCMS (UV detection with ESI, APCI, or other mass detection) when applicable using a MeCN/water gradient with either TFA, formic acid, or NH4HCO3 modifier. Silica gel and reverse-phase flash column chromatography were conducted with commercially available pre-packed columns. Reverse-phase preparative HPLC purification was performed on preparative HPLC instruments with UV and MS detection using a MeCN/water gradient with either TFA, formic acid, or NH4OH modifier. ^1H NMR spectra were collected at room temperature, and chemical shifts are reported in ppm relative to the residual proteo-solvent signals, and multiplicities, coupling constants (where applicable), and signal integrations are listed parenthetically. Unless otherwise noted, all EC50 data presented in tables refers to the CellTiter-Glo® 2.0 Cytotoxicity Assay that is described in the Biological Assay section.
CellTiter-Glo® 2.0 Cytotoxicity Assay
Step 1: Seed 384-Well Plates for Assay (45 μL Per Well) on Day 0
Jeko-1 cells were quickly thawed in a cryo-vial by incubating them in a 37° C. water bath for <1 min until there is just a small bit of ice left in the vial. The vial was promptly removed and wiped down with 70% ethanol. The cells were transferred from the vial to a sterile centrifuge tube containing 8 mL of pre-warmed cell culture medium. The vial was flushed with an additional 1 mL of medium to ensure complete transfer of cells to the centrifuge tube. The cells were then centrifuged at 150×g for 5 minutes. The supernatant was aspirated, and the cell pellet was resuspended in 10-20 mL cell culture medium. Cells were counted using Vi-cell and prepared 6.6×10^4 cells/ml, 3000 cells/45 μL per well. Then added 45 μL/well of cells into Corning® 384-well Low Flange White Flat Bottom Polystyrene TC-treated Microplates (Corning, Cat #3570) using Standard Cassette Combi (if needed, dispense 1 dummy plate at 20 μL to help normalize Combi, using medium speed). The plates were spun down at 150×g for 30 seconds.
Step 2: Add Compounds on Day 1
The compound plates and reference compound stock were taken out and allowed to thaw at RT. The tubes were centrifuged at 2000×g for 30 seconds. The 10× Intermediate assay plates (Greiner plate, Cat #781280) were prepared using an Echo liquid handler. Proper buffer (HBSS (Gibco, Cat #14025-092)+10 mM HEPES (Gibco, Cat #15630-080)+0.1% BSA (Sigma, Cat #A9576)) were used to make serial dilutions. Media (no cells) was used for Max_E. Compound (5 μL of 10×) was transferred from intermediate plate to assay plate using a Bravo liquid handler using a very slow speed so the cell monolayer wasn't disturbed. The plates were spun down at 150×g for 30 seconds.
Step 3: CellTiter-Glo 2.0 Assay (Promega, Cat #G9242) on Day 4 or 5 (CellTiter-Glo Kit Stored at −70° C.)
The CellTiter-Glo® 2.0 Reagent was thawed at 4° C. overnight, taking care not to expose the reagent to temperatures above 25° C.). The kit was equilibrated to RT for approximately 30 minutes. CellTiter-Glo® 2.0 Reagent (20 μl) was added to 50 μl of medium containing cells using Standard Cassette Combi. The contents were mixed for 2-3 minutes on an orbital shaker to induce cell lysis. The plates were spun down at 150×g for 30 seconds. The plates were allowed to incubate at RT for 5 minutes to stabilize the luminescent signal.
Illustrative compounds of the present disclosure were tested in the above assay in Example 15, and results are provided in the Table 9 below: […]

CC[C@@]1(O)C(=O)OCc2c1cc1n(c2=O)Cc2c-1nc1cc(F)c(C)c3c1c2[C@@H](NC(=O)[C@@H](CCO)OC)CC3 [Compound 31, (R)—N-((1S,9S)-9-ethyl-5-fluoro-9-hydroxy-4-methyl-10,13-dioxo-2,3,9,10,13,15-hexahydro-1H,12H-benzo[de]pyrano[3′,4′: 6,7]indolizino[1,2-b]quinolin-1-yl)-4-hydroxy-2-methoxybutanamide] and CC[C@@]1(O)C(=O)OCc2c1cc1n(c2=O)Cc2c-1nc1cc(F)c(C)c3c1c2[C@@H](NC(=O)[C@H](C)CO)CC3 [Compound 33] are within 1.5-fold of each other in EC50: 4.1 nM for the first, 3.8 nM for the second.

Compared with CC[C@@]1(O)C(=O)OCc2c1cc1n(c2=O)Cc2c-1nc1cc(F)c(C)c3c1c2[C@@H](NC(=O)[C@H](O)CCOC(F)F)CC3 [Compound 21, (R)-4-(difluoromethoxy)-N-((1S,9S)-9-ethyl-5-fluoro-9-hydroxy-4-methyl-10,13-dioxo-2,3,9,10,13,15-hexahydro-1H,12H-benzo[de]pyrano[3′,4′: 6,7]indolizino[1,2-b]quinolin-1-yl)-2-hydroxybutanamide], CC[C@@]1(O)C(=O)OCc2c1cc1n(c2=O)Cc2c-1nc1cc(F)c(C)c3c1c2[C@@H](NC(=O)[C@@H](O)CN)CC3 [Compound 44] is 22-fold higher in EC50: 3.6 nM for the first, 78 nM for the second.

First: CC[C@@]1(O)C(=O)OCc2c1cc1n(c2=O)Cc2c-1nc1cc(F)c(C)c3c1c2[C@@H](NC(=O)C(C)(NC(=O)[C@@H](C)N)C(F)F)CC3 (some centres unmarked) [Compound 47]
Second: CC[C@@]1(O)C(=O)OCc2c1cc1n(c2=O)Cc2c-1nc1cc(F)c(C)c3c1c2[C@@H](NC(=O)C(F)(F)C(C)O)CC3 (single isomer, unassigned) [Compound 7]
The EC50 of the first is 13-fold higher: 22 nM for the first, 1.7 nM for the second. The second is the more potent here.

First: CC[C@@]1(O)C(=O)OCc2c1cc1n(c2=O)Cc2c-1nc1cc(F)c(C)c3c1c2[C@@H](NC(=O)C(F)(F)CO)CC3 [Compound 9]
Second: CC[C@@]1(O)C(=O)OCc2c1cc1n(c2=O)Cc2c-1nc1cc(F)c(C)c3c1c2[C@@H](NC(=O)C(F)(F)CCN)CC3 [Compound 49, 4-amino-N-((1S,9S)-9-ethyl-5-fluoro-9-hydroxy-4-methyl-10,13-dioxo-2,3,9,10,13,15-hexahydro-1H,12H-benzo[de]pyrano[3′,4′: 6,7]indolizino[1,2-b]quinolin-1-yl)-2,2-difluorobutanamide]
The EC50 of the first is 3.5-fold lower: 4 nM for the first, 14 nM for the second.

First: CC[C@@]1(O)C(=O)OCc2c1cc1n(c2=O)Cc2c-1nc1cc(F)c(C)c3c1c2[C@@H](NC(=O)C(O)C1(CO)CC1)CC3 (stereo partly drawn) [Compound 30, N-((1S,9S)-9-ethyl-5-fluoro-9-hydroxy-4-methyl-10,13-dioxo-2,3,9,10,13,15-hexahydro-1H,12H-benzo[de]pyrano[3′,4′: 6,7]indolizino[1,2-b]quinolin-1-yl)-2-hydroxy-2-(1-(hydroxymethyl)cyclopropyl)acetamide]
Second: CC[C@@]1(O)C(=O)OCc2c1cc1n(c2=O)Cc2c-1nc1cc(F)c(C)c3c1c2[C@@H](NC(=O)[C@@H](N)CO)CC3 [Compound 45, (S)-2-amino-N-((1S,9S)-9-ethyl-5-fluoro-9-hydroxy-4-methyl-10,13-dioxo-2,3,9,10,13,15-hexahydro-1H,12H-benzo[de]pyrano[3′,4′: 6,7]indolizino[1,2-b]quinolin-1-yl)-3-hydroxypropanamide formate]
The EC50 of the first is 11-fold lower: 2.5 nM for the first, 27 nM for the second. The first is the more potent here.

Compared with CC[C@@]1(O)C(=O)OCc2c1cc1n(c2=O)Cc2c-1nc1cc(F)c(C)c3c1c2[C@@H](NC(=O)C(C)(N)C(F)(F)F)CC3 (single isomer, unassigned) [Compound 16], CC[C@@]1(O)C(=O)OCc2c1cc1n(c2=O)Cc2c-1nc1cc(F)c(C)c3c1c2[C@@H](NC(=O)C(N)C(F)(F)F)CC3 (single isomer, unassigned) [Compound 14] is 1.7-fold higher in EC50: 1.6 nM for the first, 2.8 nM for the second. The first is the more potent here.

First: CC[C@@]1(O)C(=O)OCc2c1cc1n(c2=O)Cc2c-1nc1cc(F)c(C)c3c1c2[C@@H](NC(=O)C(C)(N)COC)CC3 (some centres unmarked) [Compound 48]
Second: CC[C@@]1(O)C(=O)OCc2c1cc1n(c2=O)Cc2c-1nc1cc(F)c(C)c3c1c2[C@@H](NC(=O)C(C)(C)CCO)CC3 [Compound 38, N-((1S,9S)-9-ethyl-5-fluoro-9-hydroxy-4-methyl-10,13-dioxo-2,3,9,10,13,15-hexahydro-1H,12H-benzo[de]pyrano[3′,4′: 6,7]indolizino[1,2-b]quinolin-1-yl)-4-hydroxy-2,2-dimethylbutanamide]
The EC50 of the first is 1.9-fold higher: 8.7 nM for the first, 4.6 nM for the second.

Going from CC[C@@]1(O)C(=O)OCc2c1cc1n(c2=O)Cc2c-1nc1cc(F)c(C)c3c1c2[C@@H](NC(=O)C(N)CC(C)C)CC3 (some centres unmarked) [Compound 42] to CC[C@@]1(O)C(=O)OCc2c1cc1n(c2=O)Cc2c-1nc1cc(F)c(C)c3c1c2[C@@H](NC(=O)[C@@H](N)CN)CC3 [Compound 50, (S)-2,3-diamino-N-((1S,9S)-9-ethyl-5-fluoro-9-hydroxy-4-methyl-10,13-dioxo-2,3,9,10,13,15-hexahydro-1H,12H-benzo[de]pyrano[3′,4′: 6,7]indolizino[1,2-b]quinolin-1-yl)propanamide formate], the EC50 rises from 5.5 nM to 90 nM (16-fold).

CC[C@@]1(O)C(=O)OCc2c1cc1n(c2=O)Cc2c-1nc1cc(F)c(C)c3c1c2[C@@H](NC(=O)[C@H](N)CO)CC3 [Compound 46] and CC[C@@]1(O)C(=O)OCc2c1cc1n(c2=O)Cc2c-1nc1cc(F)c(C)c3c1c2[C@@H](NC(=O)[C@H](O)C(C)(C)CO)CC3 [Compound 3] are within 1.5-fold of each other in EC50: 5 nM for the first, 4.1 nM for the second.

CC[C@@]1(O)C(=O)OCc2c1cc1n(c2=O)Cc2c-1nc1cc(F)c(C)c3c1c2[C@@H](NC(C)C(F)F)CC3 (some centres unmarked) [Compound 59] showed an EC50 of 5.4 nM.

Same assay, conditions: Homo sapiens; Jeko-1 cells, 3000 cells/well; compounds added Day 1; CellTiter-Glo 2.0 luminescence read on Day 4 or 5; read-out: Jeko-1 EC50

CC[C@@]1(O)C(=O)OCc2c1cc1n(c2=O)Cc2c-1nc1cc(F)c(C)c3c1c2[C@@H](NC(=O)C[C@@H](C)O)CC3 [Compound 26] and CC[C@@]1(O)C(=O)OCc2c1cc1n(c2=O)Cc2c-1nc1cc(F)c(C)c3c1c2[C@@H](NC(=O)C[C@H](C)O)CC3 [Compound 25] are within 1.5-fold of each other in EC50: 2.9 nM for the first, 2.6 nM for the second.

Same assay, conditions: read-out: Jeko-1 EC50; Jeko-1 cells, 3000 cells/well; compounds added Day 1; CellTiter-Glo 2.0 luminescence read on Day 4 or 5

Compared with CC[C@@]1(O)C(=O)OCc2c1cc1n(c2=O)Cc2c-1nc1cc(F)c(C)c3c1c2[C@@H](NC(=O)C(N)(Cc1ccccc1)C(F)(F)F)CC3 (single isomer, unassigned) [Compound 19], CC[C@@]1(O)C(=O)OCc2c1cc1n(c2=O)Cc2c-1nc1cc(F)c(C)c3c1c2[C@@H](NC(=O)C(C)(N)C(F)(F)F)CC3 (single isomer, unassigned) [Compound 17] is 2.9-fold lower in EC50: 5.7 nM for the first, 2 nM for the second. The second is the more potent here.

Going from CC[C@@]1(O)C(=O)OCc2c1cc1n(c2=O)Cc2c-1nc1cc(F)c(C)c3c1c2[C@@H](NC(=O)C(N)C(F)(F)F)CC3 (single isomer, unassigned) [Compound 15] to CC[C@@]1(O)C(=O)OCc2c1cc1n(c2=O)Cc2c-1nc1cc(F)c(C)c3c1c2[C@@H](NC(=O)C(CO)C1CC1)CC3 (single isomer, unassigned) [Compound 23], the EC50 rises from 2.9 nM to 4.6 nM (1.6-fold). The first is the more potent here.

With CC[C@@]1(O)C(=O)OCc2c1cc1n(c2=O)Cc2c-1nc1cc(F)c(C)c3c1c2[C@@H](NC(=O)C(C)(CCO)C(F)F)CC3 (single isomer, unassigned) [Compound 40] the EC50 was 4.6 nM.
